Read-outs that look alike come from different tables or passages of the source.
What was measured:
[1] = test system: food intake (female rats); assay: anorectic activity by the food intake method in the rat; type: in vivo; conditions: food taken in first hour, read-out: ID50 (dose inhibiting by 50% the food intake)
Protocol: The anorectic activity was assessed by the food intake method in the rat. Female rats weighing 200 g are used, which were trained for 10 days to eat during a period of 4 hours and selected on the eighth day. At the end of the tenth day, the randomised animals were divided into a "control group" treated with the vehicle alone, and into several "treated groups". The treatment was effected by intraperitoneal or by oral route 30 minutes or 1 hour, respectively, before the presentation of the food and the amount of food taken in the course of the first hour was then measured.
the anorectic activity, expressed as oral or intraperitoneal dose inhibiting by 50% the food intake (ID50, B);

[2] = acute toxicity in the rat (LD50) by the oral or intraperitoneal route; conditions: in vivo; for selectivity ratio: read-out: A/B (LD50/ID50, therapeutic index)
Source text: the acute toxicity, expressed as LD50 in the rat by the oral or intraperitoneal route (A);
the ratio between the acute toxicity and the anorectic activity which expresses the therapeutic index related to the acute toxicity (A/B).

cerebral serotonin [3] = assay: cerebral rates of serotonin compared to controls, according to Curzon and Green; type: in vivo; conditions: for cerebral rates of serotonin, % compared to controls: two hours after administration
Source text: Table II hereinbelow summarizes the percent cerebral rates of serotonin, compared to the controls, after intraperitoneal or oral administration of four representative compounds of the present invention. The determination of the cerebral rates, according to Curzon and Green (Br. J. Pharmacol. 1970, 39, 653) was made two hours after the administration. Fenfluramine was used as reference compound.

cerebral serotonin [4] = conditions: doses very close to the anorectic dose; Arch. Intern. Pharmacodyn. Ther. 1967; cited from earlier work
central nervous system = conditions: in vivo; cited from earlier work
serotonin release = conditions: central neurons; cited from earlier work
cerebral noradrenaline = conditions: cited from earlier work
[5] = ip, 1 h, i.p., 30 minutes before food

SMILES: Cl.FC(F)(F)c1cccc(C2=CCN(CCc3ccccn3)CC2)c1 [Example 1, 1-[2-(2-pyridyl)ethyl]-4-(3-trifluoromethylphenyl)-1,2,3,6-tetrahydropyridine hydrochloride]
- ED50 [1, 5]: 1.99 mg/kg
- ED50 ([1]; po, os, 1 hour before food): 3.49 mg/kg
- LD50 ([2]; ip): 108 mg/kg
- selectivity ratio ([2]; ip): 54.2
- selectivity ratio ([2]; os): 56
- LD50 ([2]; po, os): 195 mg/kg
- cerebral rates of serotonin, % compared to controls (cerebral serotonin [3]; i.p., 1.625 mg/kg): 93 ± 7%
- cerebral rates of serotonin, % compared to controls (cerebral serotonin [3]; i.p., 3.25 mg/kg): 85 ± 1%
- cerebral rates of serotonin, % compared to controls (cerebral serotonin [3]; i.p., 7.5 mg/kg, °° P < 0.01): 98 ± 10%

SMILES: Cl.FC(F)(F)c1cccc(C2=CCN(CCc3cccnc3)CC2)c1 [Example 2, 1-[2-(3-pyridyl)ethyl]-4-(3-trifluoromethylphenyl)-1,2,3,6-tetrahydropyridine hydrochloride]
- ED50 ([1]; po, os, 1 hour before food): 1.77 mg/kg
- selectivity ratio ([2]; os): 128
- LD50 ([2]; po, os): 227 mg/kg
- cerebral rates of serotonin, % compared to controls (cerebral serotonin [3]; os, 2.0 mg/kg): 113 ± 5%

SMILES: Cl.FC(F)(F)c1cccc(C2=CCN(CCc3ccncc3)CC2)c1 [Example 3, 1-[2-(4-pyridyl)ethyl]-4-(3-trifluoromethylphenyl)-1,2,3,6-tetrahydropyridine hydrochloride]
- ED50 ([1]; po, os, 1 hour before food): 5.82 mg/kg
- selectivity ratio ([2]; os): 49.6
- LD50 ([2]; po, os): 289 mg/kg

SMILES: Cc1cccc(CCN2CC=C(c3cccc(C(F)(F)F)c3)CC2)n1.Cl [Example 4, 1-[2-(6-methyl-2-pyridyl)ethyl]-4-(3-trifluoromethylphenyl)-1,2,3,6-tetrahydropyridine hydrochloride]
- ED50 ([1]; po, os, 1 hour before food): 5.69 mg/kg
- selectivity ratio ([2]; os): 35.6
- LD50 ([2]; po, os): 202 mg/kg
- cerebral rates of serotonin, % compared to controls (cerebral serotonin [3]; os, 5.69 mg/kg): 119 ± 6%

SMILES: Cl.[O-][n+]1ccc(CCN2CC=C(c3cccc(C(F)(F)F)c3)CC2)cc1 [Example 5, 4-[2-[4-(3-trifluoromethylphenyl)-1,2,3,6-tetrahydropyrid-1-yl]ethyl]pyridine 1-oxide hydrochloride]
- ED50 ([1]; po, os, 1 hour before food): 1.71 mg/kg
- selectivity ratio ([2]; os): ~176
- LD50 ([2]; po, os): ~300 mg/kg

SMILES: Cl.FC(F)(F)c1cccc(C2=CCN(CCc3cccc4ccccc34)CC2)c1 [Example 6, 1-[2-(1-naphthyl)ethyl]-4-(3-trifluoromethylphenyl)-1,2,3,6-tetrahydropyridine hydrochloride]
- ED50 ([1]; po, os, 1 hour before food): 4.75 mg/kg
- selectivity ratio ([2]; os): > 126
- LD50 ([2]; po, os): > 600 mg/kg

SMILES: Cl.FC(F)(F)c1cccc(C2=CCN(CCc3ccc4ccccc4c3)CC2)c1 [Example 7, 1-[2-(2-naphthyl)ethyl]-4-(3-trifluoromethylphenyl)-1,2,3,6-tetrahydropyridine hydrochloride]
- ED50 ([1]; po, os, 1 hour before food): 10.4 mg/kg
- selectivity ratio ([2]; os): > 76.6
- LD50 ([2]; po, os): > 800 mg/kg

SMILES: CCNC(C)Cc1cccc(C(F)(F)F)c1 (stereo not drawn) [Fenfluramine, reference compound]
- cerebral rates of serotonin (background) (cerebral serotonin [4]): significant reduction in the cerebral rates of serotonin
- ED50 [1, 5]: 1.58 mg/kg
- ED50 ([1]; po, os, 1 hour before food): 2.51 mg/kg
- LD50 ([2]; ip): 102 mg/kg
- LD50 ([2]; po, os): 231 mg/kg
- cerebral serotonin depletion/reduction (cerebral serotonin [3]; in vivo): significant reduction of the cerebral serotonin
- anorectic activity (background) (central nervous system): excellent anorectic activity
- sedative/stimulant action (background) (central nervous system): some sedative action
- serotonin release (background) (serotonin release): release of the endogenous serotonin of the central neurons

SMILES: CC(N)Cc1ccccc1 (stereo not drawn) [amphetamine]
- noradrenaline release mediating anorexia (background) (cerebral noradrenaline): seems to be mediated by the release of cerebral noradrenaline

Source: US4521428A, “Anorexigenic trifluoromethylphenyltetrahydropyridines and pharmaceutical compositions containing them” (Sanofi, priority 1982, dated 1985)
